Assay results reported in patent publication US11932649B1, “5-(3-substituted phenyl)-pyrimido[4,5-d]pyrimidine-2,4,7(1H,3H,8H)-trione derivatives as anticancer agents” (KING FAISAL UNIVERISTY, priority 2023, dated 2024).
Read-outs that look alike come from different tables or passages of the source.

Legend:
[1] = tested on: adeno carcinomic human alveolar basal epithelial cell line (A-549); test: Anticancer activity against human alveolar basal epithelial cell line A-549; assay type: cell-based
[2] = tested on: human breast cancer cell line (MCF-7); test: Anticancer activity against human breast cancer cell line MCF-7; assay type: cell-based

Row | Compound | IC50 [1] [µM] | IC50 [2] [µM] | IC50 ([1]; A549) [µM] | melting point [°C] | IC50 ([2]; MCF7) [µM]
1 | 5-(3-Hydroxy-4-methoxyphenyl)-1,3-dimethylpyrimido[4,5-d]pyrimidine-2,4,7(1H,3H,8H)-trione [Compound 4d] | 0.186 | 0.01 |  |  | 
2 | O=c1nc(-c2cccc(OCc3ccccc3)c2)c2c(=O)[nH]c(=O)[nH]c2[nH]1 [Compound 4a, 5-(3-(Benzyloxy)phenyl)pyrimido[4,5-d]pyrimidine-2,4,7(1H,3H,8H)-trione] |  |  | 0.518 | 186 to 188 | 0.663
3 | O=c1nc(-c2ccc(OCc3ccccc3)cc2)c2c(=O)[nH]c(=O)[nH]c2[nH]1 [Compound 4b, 5-(4-(Benzyloxy)phenyl)pyrimido[4,5-d]pyrimidine-2,4,7(1H,3H,8H)-trione] |  |  | 0.082 | 142 to 144 | 0.038
4 | COc1ccc(-c2nc(=O)[nH]c3[nH]c(=O)[nH]c(=O)c23)cc1O [Compound 4c, 5-(3-Hydroxy-4-methoxyphenyl)pyrimido[4,5-d]pyrimidine-2,4,7(1H,3H,8H)-trione] |  |  | 0.461 | 272 to 274 | 0.295
